Measurements taken from patent US9884857B2, “Salts of dasatinib in amorphous form” (BASF SE, priority 2013, dated 2018).

Assays:
[1] = 11 months of storage at room temperature (Example 1: closed glass vial)
Experimental: Powder X-Ray Diffraction:
The measurements are carried out with a Bruker D8 Advance powder X-ray diffractometer using Cu Kα radiation in the Bragg-Brentano reflection geometry. Generally, the 2θ values are accurate within an error of ±0.1-0.2°. The relative peak intensities can vary considerably for different samples of the same crystalline form because of different preferred orientations of the crystals. The samples are prepared without any special treatment other than the application of slight pressure to get a flat surface. Generally, silicon single crystal sample holders of 0.1 mm, 0.5 mm or 1.0 mm depth are used. The tube voltage and current are 40 kV and 40 mA, respectively. The X-ray diffractometer is equipped with a LynxEye detector. A variable divergence slight is used with a 3° window. The step size is 0.02° 2θ with a step time of 37 seconds. The samples are rotated at 0.5 rps during the measurement.

[2] = heating rate 10° C. per minute, dried sample
Experimental: Differential scanning calorimetry: DSC is carried out with a TA Instruments DSC Q2000 using hermetically sealed gold sample pans. The heating rate is 10° C. per minute. Samples are dried under nitrogen before sample pans are closed under nitrogen.

[3] = after two hours equilibration at 25° C.; resulting pH value 4.6
Experimental: Solubility Determinations:
Solubility determinations are carried out in pure water at 25±2° C. Suspensions with about 10 mg salt in 0.5 mL water are prepared and equilibrated for two hours before the solution phase is filtered off and tested by HPLC.
HPLC is carried out on an Agilent 1100 HPLC chromatograph equipped with a UV-vis detection unit. […] The column type used is a Waters XTerra MS C18, 250×4.6 mm, 5 μm (FK-CC14). The method as referenced above is an isocratic method using an aqueous ammonium acetate/acetic acid and methanol with a ratio of 55/45. The applied flow rate is 1.0 mL per minute, the injection volume is 20 microliter and the detection wavelength is 321 nm.

| Compound | crystalline material by powder X-ray diffraction after storage [1] | glass transition (DSC step) [2] | aqueous solubility [3] |
| --- | --- | --- | --- |
| Cc1nc(Nc2ncc(C(=O)Nc3c(C)cccc3Cl)s2)cc(N2CCN(CCO)CC2)n1.O=C1NS(=O)(=O)c2ccccc21 [Example 1, Dasatinib saccharinate] | no crystalline material was present | ~130 °C | 1330 µg/mL |
| Cc1nc(Nc2ncc(C(=O)Nc3c(C)cccc3Cl)s2)cc(N2CCN(CCO)CC2)n1.O=C(O)CCCC(=O)O [Example 2, Dasatinib glutarate] | no crystalline material is present |  |  |
| Cc1nc(Nc2ncc(C(=O)Nc3c(C)cccc3Cl)s2)cc(N2CCN(CCO)CC2)n1.O=C(O)c1cccnc1 [Example 3, Dasatinib nicotinate] | no crystalline material is present |  |  |
| Cc1nc(Nc2ncc(C(=O)Nc3c(C)cccc3Cl)s2)cc(N2CCN(CCO)CC2)n1.O=C1NS(=O)(=O)c2ccccc21 [Example 4, Dasatinib saccharinate] |  | about 113 °C |  |
